In the supplement of paper PMC10307832:

Tests used:
Assay in all cases: relative viability (nuclei count vs DMSO), 5 days (fraction); higher = more cells survive
[1] = compound: Cc1cnc(CNC(=O)c2c(=O)c3ccc(N4CCCN(C)CC4)nc3n3c2sc2ccccc23)cn1 [CX-5461] + CC(C)C[C@H](NC(=O)[C@H](Cc1ccccc1)NC(=O)c1cnccn1)B(O)O [Bortezomib] (partner 0.002 µM)
Outline: (§1)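 Relative viability divides the nuclei count in treated wells by that in vehicle wells. Lung cancer cell lines were seeded in 1536-well plates, dosed by pin tool the next day, and fixed and stained after 5 days in one step with final 0.05% Triton X-100, 1% formaldehyde and 1 ug/ml Hoechst. Dosing was a single drug or a fixed anchor-drug dose plus five library-drug doses (not always all listed) in √10 steps, and values are medians of duplicate plates imaged at 4×.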

[2] = compound: O=C(Nc1cc(C(F)(F)F)cc(C(F)(F)F)c1)c1cc(Cl)ccc1O [IMD-0354] + N=C(N)NC(=N)NCCc1ccccc1 [Phenformin] (partner 250 µM)
Outline: as §1

[3] = compound: Cc1cnc(CNC(=O)c2c(=O)c3ccc(N4CCCN(C)CC4)nc3n3c2sc2ccccc23)cn1 [CX-5461] + CC1(C)CCC(c2ccc(Cl)cc2)=C(CN2CCN(c3ccc(C(=O)NS(=O)(=O)c4ccc(N[C@H](CCN5CCOCC5)CSc5ccccc5)c(S(=O)(=O)C(F)(F)F)c4)cc3)CC2)C1 [Navitoclax] (partner 0.5 µM)
Outline: as §1

[4] = compound: Cc1cnc(CNC(=O)c2c(=O)c3ccc(N4CCCN(C)CC4)nc3n3c2sc2ccccc23)cn1 [CX-5461] + Nc1nc2[nH]cc(CCc3ccc(C(=O)N[C@@H](CCC(=O)O)C(=O)O)cc3)c2c(=O)[nH]1 [Pemetrexed] (partner 0.2 µM)
Outline: as §1

| Cell Line | relative viability ([1]; first compound 0.01 µM) | relative viability ([1]; first compound 0.03162 µM) | relative viability ([1]; first compound 0.1 µM) | relative viability ([1]; first compound 0.3162 µM) | relative viability ([1]; first compound 1 µM) | relative viability ([2]; first compound 0.04 µM) | relative viability ([2]; first compound 0.1265 µM) | relative viability ([2]; first compound 0.4 µM) | relative viability ([2]; first compound 1.265 µM) | relative viability ([2]; first compound 4 µM) | relative viability ([3]; first compound 0.01 µM) | relative viability ([3]; first compound 0.03162 µM) | relative viability ([3]; first compound 0.1 µM) | relative viability ([3]; first compound 0.3162 µM) | relative viability ([3]; first compound 1 µM) | relative viability ([4]; first compound 0.01 µM) | relative viability ([4]; first compound 0.03162 µM) | relative viability ([4]; first compound 0.1 µM) | relative viability ([4]; first compound 0.3162 µM) | relative viability ([4]; first compound 1 µM) |
| --- | --- | --- | --- | --- | --- | --- | --- | --- | --- | --- | --- | --- | --- | --- | --- | --- | --- | --- | --- | --- |
| NCI-H2347 | 1.06 | 1.21 | 0.836 | 0.854 | 0.941 | 0.396 | 0.381 | 0.272 | 0.149 | 0.218 | 0.968 | 0.864 | 0.858 | 0.601 | 0.73 | 0.396 | 0.42 | 0.431 | 0.411 | 0.41 |
| NCI-H2405 | 0.998 | 0.976 | 0.987 | 1.13 | 0.953 | 0.445 | 0.398 | 0.286 | 0.245 | 0.166 | 0.957 | 0.92 | 0.997 | 0.431 | 0.743 | 1.06 | 0.892 | 1 | 1.02 | 0.911 |
| NCI-H3122 | 0.95 | 1.06 | 1.07 | 1.02 | 0.914 | 0.401 | 0.339 | 0.136 | 0.064 | 0.0975 | 0.966 | 1.04 | 1.03 | 1.01 | 0.97 | 0.201 | 0.196 | 0.2 | 0.206 | 0.18 |
| PC-3 [JPC-3] | 0.745 | 0.83 | 0.838 | 0.884 | 0.825 | 0.508 | 0.449 | 0.459 | 0.264 | 0.291 | 0.86 | 0.861 | 0.746 | 0.784 | 0.821 | 1.18 |  | 1.11 | 1.15 | 0.86 |
| PC-14 | 1.02 | 0.918 | 1.03 | 0.837 | 0.944 | 0.817 | 0.59 | 0.221 | 0.107 | 0.112 | 1.18 | 1.06 | 1.03 | 0.974 | 0.979 | 0.134 | 0.134 | 0.118 | 0.157 | 0.113 |
| RERF-LC-KJ | 1.11 | 1.1 | 1.15 | 1.09 | 1.01 | 0.478 | 0.423 | 0.337 | 0.289 | 0.207 | 0.95 | 0.969 | 1.17 | 0.887 | 0.837 | 0.508 | 0.465 | 0.442 | 0.403 | 0.434 |
| SK-LU-1 |  | 1.15 | 1.05 | 0.518 | 0.761 | 0.713 | 0.413 | 0.303 | 0.193 | 0.187 | 0.792 | 0.972 | 0.718 | 0.808 | 0.23 | 1.06 | 1.12 | 0.852 | 0.965 | 0.651 |
| SW 1573 | 0.952 | 1.22 | 1.03 | 0.924 | 0.763 | 0.397 | 0.265 | 0.18 | 0.0898 | 0.103 | 0.974 | 0.998 | 1.05 | 0.872 | 1.12 | 0.88 | 0.845 | 0.153 | 0.692 | 0.203 |
